In PubChem BioAssay AID330 (DTP/NCI, 2004):
“And” between values parts separate entries of the source, which are not always exact repeats. Identical values can stand only once. Inconclusive results and toxic doses are left out. How the source made its calls: active means survival T/C of 150% or more; inactive means T/C below 125% in these data.

System: P388 leukemia ip, CD2F1 mice, survival T/C
Assay: NCI In Vivo Anticancer Drug Screen. Data for tumor model P388 Leukemia (intraperitoneal) in CD2F1 (CDF1) mice
Conditions: endpoint: median survival time, higher = longer survival
Method in brief: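 Mice carrying the transplanted tumor received test compound or vehicle. Survival was recorded in each group, and the value is the treated-group measurement divided by that of the vehicle-treated control group.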

[1] = dose: 60.0 mg/kg/injection, schedule: Q01DX005 (ip), vehicle: saline with Tween-80
[2] = dose: 120.0 mg/kg/injection, schedule: Q01DX005 (ip), vehicle: saline with Tween-80
[3] = dose: 240.0 mg/kg/injection, schedule: Q01DX005 (ip), vehicle: saline with Tween-80
[4] = dose: 50.0 mg/kg/injection, schedule: Q01DX005 (ip), vehicle: Klucel (hydroxypropylcellulose) (HPC)
[5] = dose: 100.0 mg/kg/injection, schedule: Q01DX005 (ip), vehicle: Klucel (hydroxypropylcellulose) (HPC)
[6] = dose: 200.0 mg/kg/injection, schedule: Q01DX005 (ip), vehicle: Klucel (hydroxypropylcellulose) (HPC)
[7] = dose: 50.0 mg/kg/injection, schedule: Q01DX009 (ip), vehicle: saline with Tween-80
[8] = dose: 100.0 mg/kg/injection, schedule: Q01DX009 (ip), vehicle: saline with Tween-80
[9] = dose: 200.0 mg/kg/injection, schedule: Q01DX009 (ip), vehicle: saline with Tween-80
[10] = dose: 50.0 mg/kg/injection, schedule: Q01DX005 (ip), vehicle: saline with Tween-80
[11] = dose: 100.0 mg/kg/injection, schedule: Q01DX005 (ip), vehicle: saline with Tween-80
[12] = dose: 200.0 mg/kg/injection, schedule: Q01DX005 (ip), vehicle: saline with Tween-80
[13] = dose: 100.0 mg/kg/injection, schedule: Q04DX003 (ip), vehicle: saline
[14] = dose: 200.0 mg/kg/injection, schedule: Q04DX003 (ip), vehicle: saline
[15] = dose: 400.0 mg/kg/injection, schedule: Q04DX003 (ip), vehicle: saline
[16] = dose: 12.5 mg/kg/injection, schedule: Q01DX009 (ip), vehicle: saline with Tween-80
[17] = dose: 25.0 mg/kg/injection, schedule: Q01DX009 (ip), vehicle: saline with Tween-80

Measured: T/C

COC(=O)c1[nH]c(=O)c(C#N)c(C(=O)OC)c1-c1ccccn1
inactive: [1] 93 % of control | [2] 92 % of control | [3] 92 % of control

CN(C)C(=S)SSC(C)(C)C
inactive: [4] 100 % of control | [5] 99 % of control | [6] 100 % of control

C[Si](C)(C)CC[Si]12OCCN(CCO1)C1CCCCC1O2 (stereo unspecified)
inactive: [4] 93 % of control | [5] 101 % of control | [6] 97 % of control

Cc1[nH]c2ccc(N(C)C)cc2c(=O)c1CN1CCN(C)CC1
inactive: [7] 111 % of control | [8] 111 % of control | [9] 110 % of control

Cn1c(=O)c2c(nc(CCCCc3nc4c(c(=O)n(C)c(=O)n4C)n3C)n2C)n(C)c1=O
inactive: dose: 1.56 mg/kg/injection, schedule: Q01DX009 (ip), vehicle: saline with Tween-80 87 % of control | dose: 3.13 mg/kg/injection, schedule: Q01DX009 (ip), vehicle: saline with Tween-80 89 % of control | dose: 6.25 mg/kg/injection, schedule: Q01DX009 (ip), vehicle: saline with Tween-80 88 % of control | [7] 86 % of control

O=C(Nc1nccs1)C(F)(F)F
inactive: [7] 104 % of control | [8] 104 % of control | [9] 99 % of control | dose: 400.0 mg/kg/injection, schedule: Q01DX009 (ip), vehicle: saline with Tween-80 108 % of control

CC1CCCC(C)N1C(=O)C(Cl)(Cl)Cl (stereo unspecified)
inactive: [10] 100 % of control | [11] 100 % of control | [12] 100 % of control

CC(C)C(NC(=O)C(=O)c1c[nH]c2ccc(Cl)cc12)C(=O)O (stereo unspecified)
inactive: [1] 100 % of control | [2] 91 % of control | [3] 90 % of control

CCCCN1CCC2(C)c3cc(O)ccc3CC1C2CC (stereo unspecified)
inactive: dose: 7.5 mg/kg/injection, schedule: Q01DX005 (ip), vehicle: Klucel (hydroxypropylcellulose) (HPC) 101 % of control | dose: 15.0 mg/kg/injection, schedule: Q01DX005 (ip), vehicle: Klucel (hydroxypropylcellulose) (HPC) 100 % of control | dose: 30.0 mg/kg/injection, schedule: Q01DX005 (ip), vehicle: Klucel (hydroxypropylcellulose) (HPC) 97 % of control

O=[N+]([O-])c1ccc(N=Nc2ccc(O)cc2O)cc1
inactive: [13] 100 % of control | [14] 114 % of control | [15] 115 % of control

CC(C)([CH2][Sn]([CH3])([Cl])[Cl])c1ccccc1
inactive: dose: 0.79 mg/kg/injection, schedule: Q04DX003 (ip), vehicle: saline with Tween-80 99 % of control and 101 % of control | dose: 1.56 mg/kg/injection, schedule: Q04DX003 (ip), vehicle: saline with Tween-80 99 % of control and 116 % of control and 98 % of control | dose: 3.12 mg/kg/injection, schedule: Q04DX003 (ip), vehicle: saline with Tween-80 102 % of control and 111 % of control and 95 % of control | dose: 6.25 mg/kg/injection, schedule: Q04DX003 (ip), vehicle: saline with Tween-80 104 % of control and 97 % of control and 98 % of control | dose: 6.25 mg/kg/injection, schedule: Q04DX003 (ip), vehicle: saline 106 % of control

NC(=O)N/N=c1/oc2ccccc2cc1C(N)=O
inactive: dose: 100.0 mg/kg/injection, schedule: Q04DX002 (ip), vehicle: saline 98 % of control | dose: 200.0 mg/kg/injection, schedule: Q04DX002 (ip), vehicle: saline 98 % of control | dose: 400.0 mg/kg/injection, schedule: Q04DX002 (ip), vehicle: saline 96 % of control

CC1(C(N)C(=O)O)CC(Cl)=NO1 (stereo unspecified)
inactive: dose: 4.0 mg/kg/injection, schedule: Q01DX009 (ip), vehicle: other 108 % of control | dose: 8.0 mg/kg/injection, schedule: Q01DX009 (ip), vehicle: other 103 % of control | dose: 16.0 mg/kg/injection, schedule: Q01DX009 (ip), vehicle: other 100 % of control | dose: 32.0 mg/kg/injection, schedule: Q01DX009 (ip), vehicle: other 103 % of control | dose: 64.0 mg/kg/injection, schedule: Q01DX009 (ip), vehicle: other 103 % of control | dose: 128.0 mg/kg/injection, schedule: Q01DX009 (ip), vehicle: other 94 % of control

CCOP(=O)(O)CP(=O)(O)OCC.CCOP(=O)(O)CP(=O)(O)OCC.[Cr]
inactive: dose: 50.0 mg/kg/injection, schedule: Q04DX003 (ip), vehicle: saline with Tween-80 102 % of control | dose: 100.0 mg/kg/injection, schedule: Q04DX003 (ip), vehicle: saline with Tween-80 98 % of control | dose: 200.0 mg/kg/injection, schedule: Q04DX003 (ip), vehicle: saline with Tween-80 99 % of control

Nc1ccccc1C(=O)N/N=C\c1ccc(O)cc1
inactive: [16] 94 % of control | [17] 89 % of control and 91 % of control | [7] 101 % of control and 94 % of control | [8] 99 % of control and 87 % of control

O=C1c2ccccc2C(=O)N1CCc1ccccc1Br
inactive: [4] 104 % of control | [5] 96 % of control

Cc1ccccc1C1(O)CCCCC1
inactive: [7] 105 % of control | [8] 107 % of control | [9] 101 % of control

CCOc1c(N=Nc2ccc(O)cc2)c(C)nn1C(N)=S
inactive: dose: 15.0 mg/kg/injection, schedule: Q01DX005 (ip), vehicle: Klucel + Tween-80 99 % of control | dose: 30.0 mg/kg/injection, schedule: Q01DX005 (ip), vehicle: Klucel + Tween-80 101 % of control

Cc1ccc(S(=O)(=O)OC2C(O)CC(=O)C(OC(=O)c3ccccc3)C2OC(=O)c2ccccc2)cc1 (stereo unspecified)
inactive: dose: 50.0 mg/kg/injection, schedule: Q01DX001 (ip), vehicle: saline with Tween-80 90 % of control | dose: 100.0 mg/kg/injection, schedule: Q01DX001 (ip), vehicle: saline with Tween-80 89 % of control | dose: 400.0 mg/kg/injection, schedule: Q01DX001 (ip), vehicle: saline with Tween-80 100 % of control

C/C(=N\NC(=S)N1CCN(C2CCCCCC2)CC1)c1ccccn1
inactive: dose: 1.57 mg/kg/injection, schedule: Q01DX005 (ip), vehicle: saline with Tween-80 96 % of control | dose: 3.13 mg/kg/injection, schedule: Q01DX005 (ip), vehicle: saline with Tween-80 100 % of control | dose: 6.25 mg/kg/injection, schedule: Q01DX005 (ip), vehicle: saline with Tween-80 114 % of control and 120 % of control

C1CCNCC1.O=C([CH-]C(=O)C(F)(F)F)c1cccs1.O=C([CH-]C(=O)C(F)(F)F)c1cccs1.O=C([CH-]C(=O)C(F)(F)F)c1cccs1.O=C([CH-]C(=O)C(F)(F)F)c1cccs1.[Eu+3]
inactive: [16] 95 % of control | dose: 25.0 mg/kg/injection, schedule: Q01DX009 (ip), vehicle: Klucel (hydroxypropylcellulose) (HPC) 105 % of control | [17] 95 % of control | dose: 50.0 mg/kg/injection, schedule: Q01DX009 (ip), vehicle: Klucel (hydroxypropylcellulose) (HPC) 109 % of control | [7] 99 % of control | dose: 100.0 mg/kg/injection, schedule: Q01DX009 (ip), vehicle: Klucel (hydroxypropylcellulose) (HPC) 109 % of control | [8] 89 % of control

COC(=O)/C=C\C1(CCC(=O)OC)N=C(c2ccccc2)OC1=O (stereo unspecified)
inactive: [10] 101 % of control | [11] 92 % of control | [12] 96 % of control

CN(C)CCN1C(=O)c2c(c3cccn3c3c2cnn3-c2ccccc2)C1=O
inactive: [1] 100 % of control | [2] 102 % of control | [3] 100 % of control

O=c1n(-c2ccccc2)c2nc3ccccc3nc2n1-c1ccc(Cl)c(Cl)c1
inactive: [10] 90 % of control | [11] 100 % of control | [12] 109 % of control

Cc1ccc[n+](CCC(N)=O)c1
inactive: [13] 100 % of control | [14] 100 % of control | [15] 95 % of control

N#CCC(=O)N/N=C(/CC1(O)C(=O)Nc2c(Cl)cc(Cl)cc21)c1ccccc1 (stereo unspecified)
inactive: [10] 102 % of control | [11] 100 % of control | [12] 104 % of control

Nc1cc2c(cc1C=O)OCO2
inactive: dose: 100.0 mg/kg/injection, schedule: Q04DX003 (ip), vehicle: Klucel (hydroxypropylcellulose) (HPC) 99 % of control | dose: 200.0 mg/kg/injection, schedule: Q04DX003 (ip), vehicle: Klucel (hydroxypropylcellulose) (HPC) 93 % of control | dose: 400.0 mg/kg/injection, schedule: Q04DX003 (ip), vehicle: Klucel (hydroxypropylcellulose) (HPC) 107 % of control
